Laboratory results taken from publication PMC5421785, “Citrullination only infrequently impacts peptide binding to HLA class II MHC” (PLoS ONE, 2017).
Where two headings read alike, the source gives them in different places. Square brackets hold non-standard residues; d marks the D form. Peptide text beside a SMILES is read from it. Cit = NC(=O)NCCC[C@H](N)C(=O)O

Tests used:
[1] = biological target: T1, HLA-DRB1*01:01 (Homo sapiens, UniProt P01903+P01911, A100R/D57E/F55L/F60I/F76Y/I96L/L162R/M171V/P40L/Q125E/R42F/V115G/Y59C); experiment: HLA class II peptide binding, inhibition of radiolabeled peptide binding to purified MHC; conditions: for DRB1*01:01 binding capacity, WT/cit ratio: ratio of WT IC50 to Cit IC50, >1 = citrullination increases binding
T1 construct: EBV transformed homozygous cell lines were used as sources of MHC molecules; endogenous in cells; host or cells: EBV transformed homozygous cell lines

[2] = biological target: T2, HLA-DRB1*04:01 (Homo sapiens, UniProt P01903+P01911, A100K/A169T/F76Y/I96L/K127E/L162R/M171V/N62H/P40V/Q125Y/R42H/S133A/S149N/S66Y/V115G/V209L/W38E); experiment: as above; conditions: for DRB1*04:01 binding capacity, WT/cit ratio: ratio of WT IC50 to Cit IC50, >1 = citrullination increases binding
T2 construct: EBV transformed homozygous cell lines were used as sources of MHC molecules; endogenous in cells; host or cells: EBV transformed homozygous cell lines

[3] = citrullinated 15-mer peptide (X = citrulline), purified HLA-DRB1*01:01, read-out: DRB1*01:01 binding capacity, Cit peptide (IC50 nM)
[4] = citrullinated 15-mer peptide (X = citrulline), purified HLA-DRB1*04:01, read-out: DRB1*04:01 binding capacity, Cit peptide (IC50 nM)
[5] = citrullinated 15-mer (X), purified MHC, inhibition of radiolabeled peptide binding, dash = IC50 >40,000 nM, read-out: DRB1*01:01 binding capacity, Cit peptide (IC50 nM)
[6] = citrullinated 15-mer (X), purified MHC, inhibition of radiolabeled peptide binding, dash = IC50 >40,000 nM, read-out: DRB1*04:01 binding capacity, Cit peptide (IC50 nM)
[7] = citrullinated peptide as listed (X at Cit position), read-out: DRB1*01:01 binding capacity Cit peptide (IC50 nM)
[8] = value of the wild-type (non-citrullinated) counterpart of the listed peptide, read-out: DRB1*01:01 binding capacity WT peptide (IC50 nM)
[9] = citrullinated peptide as listed (X at Cit position), read-out: DRB1*04:01 binding capacity Cit peptide (IC50 nM)
[10] = value of the wild-type (non-citrullinated) counterpart of the listed peptide, read-out: DRB1*04:01 binding capacity WT peptide (IC50 nM)

Row | IC50 [1, 3] [nM] | IC50 [2, 4] [nM] | Structure (SMILES) | other results
1 | 646 | 8410 | CC[C@H](C)[C@H](NC(=O)[C@H](CCCNC(N)=O)NC(=O)[C@H](CO)NC(=O)[C@H](CCC(=O)O)NC(=O)[C@H](CCC(=O)O)NC(=O)CN)C(=O)N[C@@H](CO)C(=O)N[C@@H](CC(C)C)C(=O)N1CCC[C@H]1C(=O)N[C@@H](CC(C)C)C(=O)N1CCC[C@H]1C(=O)N[C@@H](CC(N)=O)C(=O)N[C@@H](Cc1ccccc1)C(=O)N[C@@H](CO)C(=O)N[C@@H](CO)C(=O)O [GEESXISLPLPNFSS] (H-GEES[Cit]ISLPLPNFSS-OH) | 
2 | 0.65 | 2340 | CC(C)C[C@H](NC(=O)CNC(=O)[C@@H](NC(=O)[C@H](Cc1ccccc1)NC(=O)CNC(=O)[C@H](CCCNC(N)=O)NC(=O)[C@H](Cc1c[nH]cn1)NC(=O)CN)[C@@H](C)O)C(=O)N[C@@H](CCC(N)=O)C(=O)NCC(=O)N[C@@H](CC(C)C)C(=O)N1CCC[C@H]1C(=O)NCC(=O)N1CCC[C@H]1C(=O)N1CCC[C@H]1C(=O)O [GHXGFTGLQGLPGPP] (H-GH[Cit]GFTGLQGLPGPP-OH) | 
3 | 565 | > 40000 | CC[C@H](C)[C@H](NC(=O)CN)C(=O)N[C@@H](C)C(=O)NCC(=O)N[C@@H](C)C(=O)N1CCC[C@H]1C(=O)NCC(=O)N[C@@H](Cc1ccccc1)C(=O)N1CCC[C@H]1C(=O)NCC(=O)N1CCC[C@H]1C(=O)N[C@@H](CCCNC(N)=O)C(=O)NCC(=O)N1CCC[C@H]1C(=O)N1CCC[C@H]1C(=O)O [GIAGAPGFPGPXGPP] (H-GIAGAPGFPGP[Cit]GPP-OH) | 
4 | 3.6 | 2050 | CC[C@H](C)[C@H](NC(=O)CN)C(=O)N[C@H](C(=O)NCC(=O)N[C@@H](CC(C)C)C(=O)N1CCC[C@H]1C(=O)NCC(=O)N[C@@H](CCC(N)=O)C(=O)N[C@@H](CCCNC(N)=O)C(=O)NCC(=O)N[C@@H](CCC(=O)O)C(=O)N[C@@H](CCCNC(=N)N)C(=O)NCC(=O)N[C@@H](Cc1ccccc1)C(=O)N1CCC[C@H]1C(=O)O)C(C)C [GIVGLPGQXGERGFP] (H-GIVGLPGQ[Cit]GERGFP-OH) | 
5 | 18000 | > 40000 | N=C(N)NCCC[C@H](NC(=O)[C@H](CCC(=O)O)NC(=O)CNC(=O)[C@@H]1CCCN1C(=O)[C@H](Cc1ccccc1)NC(=O)CNC(=O)[C@H](CCCNC(N)=O)NC(=O)[C@H](CCC(=O)O)NC(=O)CNC(=O)[C@H](CCCNC(=N)N)NC(=O)[C@@H]1CCCN1C(=O)CN)C(=O)NCC(=O)N[C@@H](CO)C(=O)N1CCC[C@H]1C(=O)O [GPRGEXGFPGERGSP] (H-GPRGE[Cit]GFPGERGSP-OH) | 

More lines, now with the values behind:

Row | Structure (SMILES) | IC50 [1, 3] [nM] | IC50 [2, 4] [nM] | other results
6 | CSCC[C@H](NC(=O)[C@@H]1CCCN1C(=O)CNC(=O)[C@H](CCC(N)=O)NC(=O)[C@H](C)NC(=O)CNC(=O)[C@H](C)NC(=O)[C@H](CCC(=O)O)NC(=O)CNC(=O)[C@H](CCCNC(N)=O)NC(=O)[C@H](CC(=O)O)NC(=O)CN)C(=O)NCC(=O)N1CCC[C@H]1C(=O)N[C@@H](CO)C(=O)O [GDXGEAGAQGPMGPS] (H-GD[Cit]GEAGAQGPMGPS-OH; N-terminus and C-terminus assumed) | > 40000 | > 40000 | DRB1*01:01 binding capacity, WT/cit ratio [1]: 0.2; DRB1*04:01 binding capacity, WT/cit ratio [2]: 1.0
7 | C[C@H](NC(=O)[C@@H](NC(=O)CNC(=O)[C@@H]1CCCN1C(=O)CNC(=O)CN)[C@@H](C)O)C(=O)N[C@@H](CO)C(=O)N[C@@H](CCCNC(=N)N)C(=O)N1CCC[C@H]1C(=O)N[C@@H](CO)C(=O)N[C@@H](CO)C(=O)N[C@@H](CO)C(=O)N[C@@H](CCCNC(N)=O)C(=O)N[C@@H](CO)C(=O)N[C@@H](Cc1ccc(O)cc1)C(=O)O [GGPGTASRPSSSXSY] (H-GGPGTASRPSSS[Cit]SY-OH) |  |  | IC50 [1, 5]: 13800 nM; IC50 [2, 6]: > 40000 nM
8 | C[C@H](NC(=O)[C@@H](NC(=O)CNC(=O)[C@@H]1CCCN1C(=O)CNC(=O)CN)[C@@H](C)O)C(=O)N[C@@H](CO)C(=O)N[C@@H](CCCNC(N)=O)C(=O)N1CCC[C@H]1C(=O)N[C@@H](CO)C(=O)N[C@@H](CO)C(=O)N[C@@H](CO)C(=O)N[C@@H](CCCNC(=N)N)C(=O)N[C@@H](CO)C(=O)N[C@@H](Cc1ccc(O)cc1)C(=O)O [GGPGTASXPSSSRSY] (H-GGPGTAS[Cit]PSSSRSY-OH) |  |  | IC50 [1, 5]: 10400 nM; IC50 [2, 6]: > 40000 nM
9 | CC[C@H](C)[C@H](NC(=O)CN)C(=O)N[C@H](C(=O)NCC(=O)N[C@@H](CC(C)C)C(=O)N1CCC[C@H]1C(=O)NCC(=O)N[C@@H](CCC(N)=O)C(=O)N[C@@H](CCCNC(=N)N)C(=O)NCC(=O)N[C@@H](CCC(=O)O)C(=O)N[C@@H](CCCNC(N)=O)C(=O)NCC(=O)N[C@@H](Cc1ccccc1)C(=O)N1CCC[C@H]1C(=O)O)C(C)C [GIVGLPGQRGEXGFP] (H-GIVGLPGQRGE[Cit]GFP-OH) | 6.7 | 5800 | 
10 | CC[C@H](C)[C@H](NC(=O)[C@@H](NC(=O)[C@@H](NC(=O)[C@H](CCCCN)NC(=O)CN)[C@@H](C)O)C(C)C)C(=O)N[C@@H](CCC(=O)O)C(=O)N[C@@H](Cc1ccc(O)cc1)C(=O)N[C@@H](CCCNC(=N)N)C(=O)N[C@@H](CO)C(=O)N[C@@H](CCC(N)=O)C(=O)N[C@@H](CCCCN)C(=O)N[C@H](C(=O)N[C@@H](CO)C(=O)N[C@@H](CCCNC(N)=O)C(=O)N[C@@H](CC(C)C)C(=O)O)[C@@H](C)O [GKTVIEYRSQKTSXL] (H-GKTVIEYRSQKTS[Cit]L-OH) |  |  | IC50 [1, 7]: 9.3 nM; IC50 [1, 8]: 29 nM; IC50 [2, 9]: 138 nM; IC50 [2, 10]: 646 nM
11 | CC[C@H](C)[C@H](NC(=O)[C@@H](NC(=O)[C@@H](NC(=O)[C@H](CCCCN)NC(=O)CN)[C@@H](C)O)C(C)C)C(=O)N[C@@H](CCC(=O)O)C(=O)N[C@@H](Cc1ccc(O)cc1)C(=O)N[C@@H](CCCNC(N)=O)C(=O)N[C@@H](CO)C(=O)N[C@@H](CCC(N)=O)C(=O)N[C@@H](CCCCN)C(=O)N[C@H](C(=O)N[C@@H](CO)C(=O)N[C@@H](CCCNC(=N)N)C(=O)N[C@@H](CC(C)C)C(=O)O)[C@@H](C)O [GKTVIEYXSQKTSRL] (H-GKTVIEY[Cit]SQKTSRL-OH) |  |  | IC50 [1, 7]: 7.1 nM; IC50 [1, 8]: 29 nM; IC50 [2, 9]: 153 nM; IC50 [2, 10]: 646 nM
12 | CC(C)C[C@H](NC(=O)CNC(=O)[C@@H]1CCCN1C(=O)[C@H](C)NC(=O)CNC(=O)[C@@H]1CCCN1C(=O)[C@H](CC(C)C)NC(=O)CN)C(=O)N[C@@H](CCCNC(N)=O)C(=O)NCC(=O)N[C@@H](CC(C)C)C(=O)N1CCC[C@H]1C(=O)NCC(=O)N[C@@H](CCCCN)C(=O)N[C@@H](CC(=O)O)C(=O)O [GLPGAPGLXGLPGKD] (H-GLPGAPGL[Cit]GLPGKD-OH) | 514 | > 40000 | 
13 | CSCC[C@H](NC(=O)[C@@H](NC(=O)CNC(=O)[C@@H]1CCCN1C(=O)[C@H](CCC(N)=O)NC(=O)CNC(=O)[C@H](CCCNC(N)=O)NC(=O)[C@H](C)NC(=O)CNC(=O)[C@H](CCC(N)=O)NC(=O)[C@@H]1CCCN1C(=O)CN)C(C)C)C(=O)NCC(=O)N[C@@H](Cc1ccccc1)C(=O)N1CCC[C@H]1C(=O)O [GPQGAXGQPGVMGFP] (H-GPQGA[Cit]GQPGVMGFP-OH) | 64 | 14900 | 
14 | N=C(N)NCCC[C@H](NC(=O)[C@H](CCC(=O)O)NC(=O)CNC(=O)[C@H](CCCNC(=N)N)NC(=O)[C@@H]1CCCN1C(=O)CN)C(=O)NCC(=O)N[C@@H](Cc1ccccc1)C(=O)N1CCC[C@H]1C(=O)NCC(=O)N[C@@H](CCC(=O)O)C(=O)N[C@@H](CCCNC(N)=O)C(=O)NCC(=O)N[C@@H](CO)C(=O)N1CCC[C@H]1C(=O)O [GPRGERGFPGEXGSP] (H-GPRGERGFPGE[Cit]GSP-OH) | 31100 | > 40000 | 
15 | C[C@H](NC(=O)CNC(=O)[C@H](CCCCN)NC(=O)[C@@H]1CCCN1C(=O)CNC(=O)[C@H](CC(=O)O)NC(=O)[C@H](CCCCN)NC(=O)CNC(=O)[C@H](CO)NC(=O)[C@@H]1CCCN1C(=O)CN)C(=O)N[C@@H](CCCNC(N)=O)C(=O)NCC(=O)N[C@@H](CC(=O)O)C(=O)N[C@@H](CO)C(=O)O [GPSGKDGPKGAXGDS] (H-GPSGKDGPKGA[Cit]GDS-OH; N-terminus and C-terminus assumed) | > 40000 | > 40000 | DRB1*01:01 binding capacity, WT/cit ratio [1]: 1.0; DRB1*04:01 binding capacity, WT/cit ratio [2]: 1.0
16 | CC(C)[C@H](NC(=O)CNC(=O)[C@@H](NC(=O)[C@@H]1CCCN1C(=O)CN)[C@@H](C)O)C(=O)N[C@H](C(=O)NCC(=O)N1CCC[C@H]1C(=O)N[C@@H](CCCCN)C(=O)NCC(=O)N[C@@H](C)C(=O)N[C@@H](CCCNC(N)=O)C(=O)NCC(=O)N[C@@H](C)C(=O)N[C@@H](CCC(N)=O)C(=O)O)[C@@H](C)O [GPTGVTGPKGAXGAQ] (H-GPTGVTGPKGA[Cit]GAQ-OH) | 569 | > 40000 | 
17 | N=C(N)NCCC[C@H](NC(=O)[C@H](CCC(=O)O)NC(=O)CNC(=O)[C@H](CCCNC(N)=O)NC(=O)[C@@H]1CCCN1C(=O)CN)C(=O)NCC(=O)N[C@@H](Cc1ccccc1)C(=O)N1CCC[C@H]1C(=O)NCC(=O)N[C@@H](CCC(=O)O)C(=O)N[C@@H](CCCNC(=N)N)C(=O)NCC(=O)N[C@@H](CO)C(=O)N1CCC[C@H]1C(=O)O [GPXGERGFPGERGSP] (H-GP[Cit]GERGFPGERGSP-OH) | 23400 | > 40000 | 
